Experimental findings from patent US20230265104A1, “NOVEL HETEROCYCLIC COMPOUNDS” (PRISM BIOLAB CO., LTD., priority 2020, published 2023) are described below.

This assay concerns PANC-1 (human pancreatic cancer-derived cell line). Kind of assay: MTS assay on Panc-1 (human pancreas carcinoma cell line). In kind it is cell-based. Particulars: 144 h; for IC50: PANC-1, MTS method, cell survival 6 days after exposure, 4-parameter logistic fit; for inhibition at 30 µM: PANC-1, MTS, 6 days, read-out: Growth inhibition (%) 30 μM. On the procedure:
Experimental Example: MTS Assay on Panc-1 (Human Pancreas Carcinoma Cell Line) cell line name: PANC-1 derived from: human pancreas glandular cancer purchased from: ATCC product code: CRL-1469 proliferation medium: D-MEM+10% FBS culture environment: 37° C., 5% CO2 seeding density: 5.0×10^5 cells/25 cm^2 solvent control substance: DMSO (HYBRI-MAX®, Sigma-Aldrich Corp.) test substance: Example compound (ID-1-ID-13) A DMSO solution of the test substance was prepared by serially diluting (common ratio 2) each test substance with DMSO.
A solvent control substance sample and a test substance sample were exposed to a human pancreatic cancer-derived cell line (PANC-1), and the survival rate of the cell 6 days later was measured by the MTS method. The measurement was performed 3 times and the average thereof was adopted. The survival rate of the cell in each test substance sample was calculated by the following formula 1 with the value at exposure of the solvent control substance sample as 100% survival rate. […]
survival rate (%)=100×absorbance of each test substance sample/absorbance of solvent control substance sample formula 1 Normalized values calculated by the following formula 2 from the absorbances of each sample at 492 nm and 630 nm and the absorbances of the blank were used as the absorbances in the above-mentioned formula 1. […]
normalized value (ABS492 nm-630 nm)=(ABSsa 492 nm-ABSsa 630 nm)−(ABSbl 492 nm-ABSbl 630 nm) ABSsa 492: absorbance of each sample at wavelength 492 nm ABSsa 630: absorbance of each sample at wavelength 630 nm ABSbl 492: absorbance of blank corresponding to each sample at wavelength 492 nm ABSbl 630: absorbance of blank corresponding to each sample at wavelength 630 nm formula 2 […]
The analysis was performed by using nplr package on R (The R Foundation for Statistical Computing) and estimating the logistic regression curve (4-parameter).

The structures appear in SMILES notation.

Consider `CC(C)C[C@H]1ON(C(=O)/C=C/c2ccccn2)[C@H]2CN(C3CCN(C)CC3)C(=O)[C@H](CC(C)C)N2C1=O` [ID-1, (3R, 6S, 9aS)-3,6-diisobutyl-8-(1-methylpiperidin-4-yl)-1-((E)-3-(pyridin-2-yl)acryloyl) tetrahydropyrazino[2,1-c] [1,2,4]oxadiazine-4,7(3H,6H)-dione], for which the 50% inhibitory concentration (IC50) (usually the concentration that gives 50% inhibition) is 4100 nM. As for `CC(C)C[C@H]1ON(C(=O)/C=C/c2nc3ccccc3s2)[C@H]2CN(C3CCN(C)CC3)C(=O)[C@H](CC(C)C)N2C1=O` [ID-2, (3R, 6S, 9aS)-1-((E)-3-(benzo[d]thiazol-2-yl)acryloyl)-3,6-diisobutyl-8-(1-methylpiperidin-4-yl) tetrahydropyrazino[2,1-c] [1,2,4]oxadiazine-4,7(3H,6H)-dione], 270 nM corresponded to half-maximal inhibition (IC50).

Molecule `CC(C)C[C@H]1ON(C(=O)/C=C/c2nc(C#N)cs2)[C@H]2CN(C3CCN(C)CC3)C(=O)[C@H](CC(C)C)N2C1=O` [ID-3, 2-((E)-3-((3R, 6S, 9aS)-3,6-diisobutyl-8-(1-methylpiperidin-4-yl)-4,7-dioxohexahydropyrazino[2,1-c] [1,2,4]oxadiazin-1(6H)-yl)-3-oxoprop-1-en-1-yl)thiazole-4-carbonitrile] returned an IC50 of 340 nM.

`CC(C)C[C@H]1ON(C(=O)/C=C/c2nc3ccccc3s2)[C@H]2CN([C@H]3CCN(CCCCO)C3)C(=O)[C@H](CC(C)(C)C)N2C1=O` [ID-5, (3R,6S,9aS)-1-((E)-3-(benzo[d]thiazol-2-yl)acryloyl)-8-((S)-1-(4-hydroxybutyl)pyrrolidin-3-yl)-3-isobutyl-6-neopentyltetrahydropyrazino[2,1-c][1,2,4]oxadiazine-4,7(3H,6H)-dione] had an IC50 of 180 nM. On the same count and under the same terms, then `CC(C)C[C@H]1ON(C(=O)/C=C/c2nc3ccccc3s2)[C@H]2CN([C@@H]3CCN(CCCCO)C3)C(=O)[C@H](CC(C)(C)C)N2C1=O` [ID-6, (3R,6S,9aS)-1-((E)-3-(benzo[d]thiazol-2-yl)acryloyl)-8-((R)-1-(4-hydroxybutyl)pyrrolidin-3-yl)-3-isobutyl-6-neopentyltetrahydropyrazino[2,1-c][1,2,4]oxadiazine-4,7(3H,6H)-dione], with 130 nM. Still for that read-out and setting: the value for `CC(C)C[C@H]1ON(C(=O)/C=C/c2nc3cc(O)ccc3s2)[C@H]2CN([C@H]3CCN(CCCCO)C3)C(=O)[C@H](CC(C)(C)C)N2C1=O` [ID-7, (3R,6S,9aS)-1-((E)-3-(5-hydroxybenzo[d]thiazol-2-yl)acryloyl)-8-((S)-1-(4-hydroxybutyl)pyrrolidin-3-yl)-3-isobutyl-6-neopentyltetrahydropyrazino[2,1-c][1,2,4]oxadiazine-4,7(3H,6H)-dione] was 70 nM. Turning to `CC(C)C[C@H]1ON(C(=O)/C=C/c2nc3cc(O)ccc3s2)[C@H]2CN(C3CN(CCCCO)C3)C(=O)[C@H](CC(C)(C)C)N2C1=O` [ID-8, (3R,6S,9aS)-1-((E)-3-(5-hydroxybenzo[d]thiazol-2-yl)acryloyl)-8-(1-(4-hydroxybutyl)azetidin-3-yl)-3-isobutyl-6-neopentyltetrahydropyrazino[2,1-c][1,2,4]oxadiazine-4,7(3H,6H)-dione], 63 nM corresponded to half-maximal inhibition (IC50). The same measure, in the same setting: then `CC(C)C[C@H]1ON(C(=O)/C=C/c2nc(C#CCCCCO)cs2)[C@H]2CN([C@H]3CCN(CCCCO)C3)C(=O)[C@H](CC(C)(C)C)N2C1=O` [ID-9, (3R,6S,9aS)-8-((S)-1-(4-hydroxybutyl)pyrrolidin-3-yl)-1-((E)-3-(4-(6-hydroxyhex-1-yn-1-yl)thiazol-2-yl)acryloyl)-3-isobutyl-6-neopentyltetrahydropyrazino[2,1-c][1,2,4]oxadiazine-4,7(3H,6H)-dione], with 99 nM. The same measure, in the same setting: the value for `CC(C)C[C@H]1ON(C(=O)/C=C/c2nc(C#CCCCO)cs2)[C@H]2CN(C3CCN(C(C)C)CC3)C(=O)[C@H](CC(C)(C)C)N2C1=O` [ID-10, (3R,6S,9aS)-1-((E)-3-(4-(5-hydroxypent-1-yn-1-yl)thiazol-2-yl)acryloyl)-3-isobutyl-8-(1-isopropylpiperidin-4-yl)-6-neopentyltetrahydropyrazino[2,1-c][1,2,4]oxadiazine-4,7(3H,6H)-dione] was 48 nM; that for `CC(C)C[C@H]1ON(C(=O)/C=C/c2nc(C#CCCCCO)cs2)[C@H]2CN([C@@H]3CCN(CCCCO)C3)C(=O)[C@H](CC(C)(C)C)N2C1=O` [ID-11, (3R,6S,9aS)-8-((R)-1-(4-hydroxybutyl)pyrrolidin-3-yl)-1-((E)-3-(4-(6-hydroxyhex-1-yn-1-yl)thiazol-2-yl)acryloyl)-3-isobutyl-6-neopentyltetrahydropyrazino[2,1-c][1,2,4]oxadiazine-4,7(3H,6H)-dione] was 140 nM; that for `CC(C)C[C@H]1ON(C(=O)/C=C/c2nc3cc(O)ccc3s2)[C@H]2CN([C@@H]3CCN(CCCCO)C3)C(=O)[C@H](CC(C)(C)C)N2C1=O` [ID-12, (3R,6S,9aS)-1-((E)-3-(5-hydroxybenzo[d]thiazol-2-yl)acryloyl)-8-((R)-1-(4-hydroxybutyl)pyrrolidin-3-yl)-3-isobutyl-6-neopentyltetrahydropyrazino[2,1-c][1,2,4]oxadiazine-4,7(3H,6H)-dione] was 60 nM. `CC(C)C[C@H]1ON(C(=O)/C=C/c2nc(C#CCCCCCO)cs2)[C@H]2CN([C@@H]3CCN(CCCCO)C3)C(=O)[C@H](CC(C)(C)C)N2C1=O` [ID-13, (3R,6S,9aS)-8-((R)-1-(4-hydroxybutyl)pyrrolidin-3-yl)-1-((E)-3-(4-(7-hydroxyhept-1-yn-1-yl)thiazol-2-yl)acryloyl)-3-isobutyl-6-neopentyltetrahydropyrazino[2,1-c][1,2,4]oxadiazine-4,7(3H,6H)-dione] registered a concentration for half-maximal inhibition (IC50) of 140 nM. Compared with the last molecule, the IC50 is about 2.3-fold higher. As for `CC(C)C[C@H]1ON(C(=O)/C=C/c2ccccn2)[C@H]2CN(CCC(N)=O)C(=O)[C@H](CC(C)C)N2C1=O` [ID-14, 3-((3R,6S,9aS)-3,6-diisobutyl-4,7-dioxo-1-((E)-3-(pyridin-2-yl)acryloyl)hexahydropyrazino[2,1-c][1,2,4]oxadiazin-8 (1H)-yl)propanamide], the IC50 came out at 17800 nM. For the molecule `CC(C)C[C@H]1ON(C(=O)/C=C/c2ccccn2)[C@H]2CN(C3CCN(C(=O)c4ccccc4)CC3)C(=O)[C@H](CC(C)C)N2C1=O` [ID-15, (3R,6S,9aS)-8-(1-benzoylpiperidin-4-yl)-3,6-diisobutyl-1-((E)-3-(pyridin-2-yl)acryloyl)tetrahydropyrazino[2,1-c][1,2,4]oxadiazine-4,7(3H,6H)-dione], the midpoint of inhibition, the IC50, lay at 5800 nM and the inhibition (usually the share of the control response that was lost under treatment) at 30 µM was 99.9%. In the same order, the values of `CC(C)C[C@H]1ON(C(=O)/C=C/c2ccccn2)[C@H]2CN(C3CCNCC3)C(=O)[C@H](CC(C)C)N2C1=O` [ID-16, (3R,6S,9aS)-3,6-diisobutyl-8-(piperidin-4-yl)-1-((E)-3-(pyridin-2-yl)acryloyl)tetrahydropyrazino[2,1-c][1,2,4]oxadiazine-4,7(3H,6H)-dione] are 4700 nM and 100%. On the same counts, the results for `CC(C)C[C@H]1ON(C(=O)/C=C/c2nccs2)[C@H]2CN(CCC(N)=O)C(=O)[C@H](CC(C)C)N2C1=O` [ID-17, 3-((3R,6S,9aS)-3,6-diisobutyl-4,7-dioxo-1-((E)-3-(thiazol-2-yl)acryloyl)hexahydropyrazino[2,1-c][1,2,4]oxadiazin-8(1H)-yl)propanamide] are 11400 nM and 100%. On the same counts, the results for `CNC(=O)CCN1C[C@@H]2N(C(=O)/C=C/c3ccccn3)O[C@H](CC(C)C)C(=O)N2[C@@H](CC(C)C)C1=O` [ID-18, 3-((3R,6S,9aS)-3,6-diisobutyl-4,7-dioxo-1-((E)-3-(pyridin-2-yl)acryloyl)hexahydropyrazino[2,1-c][1,2,4]oxadiazin-8 (1H)-yl)—N-methylpropanamide] are 15900 nM and 96.4%. For the molecule `CNCCCN1C[C@H](CC(C)C)N2C(=O)[C@@H](CC(C)C)ON(C(=O)/C=C/c3ccccn3)[C@H]2C1` [ID-19, (3R,6S,9aS)-3,6-diisobutyl-8-(3-(methylamino)propyl)-1-((E)-3-(pyridin-2-yl)acryloyl)hexahydropyrazino[2,1-c][1,2,4]oxadiazin-4(3H)-one], the midpoint of inhibition, the IC50, lay at 10200 nM and the inhibition at 30 µM was 99.7%.

On to `CC(C)C[C@H]1ON(C(=O)/C=C/c2ccc3ccccc3n2)[C@H]2CN(CCC(N)=O)C(=O)[C@H](CC(C)C)N2C1=O` [ID-20, 3-((3R,6S,9aS)-3,6-diisobutyl-4,7-dioxo-1-((E)-3-(quinolin-2-yl)acryloyl)hexahydropyrazino[2,1-c][1,2,4]oxadiazin-8 (1H)-yl)propanamide], for which the IC50 is 2400 nM and the inhibition at 30 µM stood at 100%.
